Source: ChEMBL document CHEMBL5665443, “Enzyme Inhibitor Single Concentration assay results for EUbOPEN Chemogenomics Library” (2024)

Tests used:
Conditions in all cases: Hit No
[1] = biological target: T1, Adenine DNA glycosylase (Homo sapiens) (UniProt Q9UIF7);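 further: human MUTYH activity read as 594 nm fluorescence from cleavage and release of a quenched DNA duplex, coupled with APE1 for strand incision, lower signal meaning inhibition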
T1 sequence (whole entry): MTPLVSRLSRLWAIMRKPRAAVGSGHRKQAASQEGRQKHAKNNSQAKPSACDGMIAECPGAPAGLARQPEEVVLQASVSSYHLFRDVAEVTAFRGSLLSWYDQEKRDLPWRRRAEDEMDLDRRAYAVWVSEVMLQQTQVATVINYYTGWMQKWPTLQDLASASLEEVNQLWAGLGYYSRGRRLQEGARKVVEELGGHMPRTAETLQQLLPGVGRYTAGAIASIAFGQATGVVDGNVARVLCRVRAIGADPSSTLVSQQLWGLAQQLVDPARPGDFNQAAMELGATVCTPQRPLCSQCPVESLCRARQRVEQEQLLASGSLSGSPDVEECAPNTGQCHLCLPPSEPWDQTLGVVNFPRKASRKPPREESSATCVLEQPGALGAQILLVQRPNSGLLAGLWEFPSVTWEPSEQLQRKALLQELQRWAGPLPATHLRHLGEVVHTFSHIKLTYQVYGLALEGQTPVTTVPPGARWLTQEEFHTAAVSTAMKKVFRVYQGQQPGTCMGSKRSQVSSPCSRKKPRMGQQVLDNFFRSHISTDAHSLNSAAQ
Description: Inhibition of MUTYH by quantifying inhibition of MUTYH-mediated cleavage and dissociation of quenched duplex DNA oligonucleotides, measured as fluorescence at 594 nm. To generate a functional strand incision and increase turn-over this assay is coupled to APE1.

[2] = biological target: T2, Endonuclease III-like protein 1 (Homo sapiens) (UniProt P78549);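 further: enzyme assay tracking NTHL1 cutting and release of a quenched double-stranded DNA oligo substrate, read as fluorescence at 594 nm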
T2 sequence (whole entry): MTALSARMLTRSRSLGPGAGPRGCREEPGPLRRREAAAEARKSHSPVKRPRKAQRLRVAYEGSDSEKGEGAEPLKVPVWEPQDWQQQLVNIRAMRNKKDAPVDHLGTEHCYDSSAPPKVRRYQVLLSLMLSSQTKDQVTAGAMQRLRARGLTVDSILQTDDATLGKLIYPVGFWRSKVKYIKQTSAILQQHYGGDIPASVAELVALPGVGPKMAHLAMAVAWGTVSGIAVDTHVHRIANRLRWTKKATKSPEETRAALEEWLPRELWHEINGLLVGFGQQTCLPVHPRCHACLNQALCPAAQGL
Description: Inhibition of NTHL1 by quantifying inhibition of NTHL1-mediated cleavage and dissociation of quenched duplex DNA oligonucleotides, measured as fluorescence at 594 nm.

[3] = biological target: N-glycosylase/DNA lyase (Homo sapiens) (UniProt O15527);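 further: OGG1 cleavage of a quenched duplex DNA oligonucleotide, coupled to APE1 for strand incision, read as fluorescence at 594 nm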
N-glycosylase/DNA lyase (Homo sapiens), sequence (O15527 whole entry, the tested form may be a part): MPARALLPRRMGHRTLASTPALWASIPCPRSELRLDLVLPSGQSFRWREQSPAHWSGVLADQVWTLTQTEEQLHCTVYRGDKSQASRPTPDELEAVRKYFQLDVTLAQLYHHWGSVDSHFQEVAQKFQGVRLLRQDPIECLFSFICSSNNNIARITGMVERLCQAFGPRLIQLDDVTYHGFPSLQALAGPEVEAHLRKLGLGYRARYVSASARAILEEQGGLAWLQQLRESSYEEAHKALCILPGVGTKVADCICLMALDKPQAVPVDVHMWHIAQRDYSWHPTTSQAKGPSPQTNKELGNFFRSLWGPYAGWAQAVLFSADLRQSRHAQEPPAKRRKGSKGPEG
Description: Inhibition of OGG1 by quantifying inhibition of OGG1-mediated cleavage and dissociation of quenched duplex DNA oligonucleotides, measured as fluorescence at 594 nm. To generate a functional strand incision and increase turn-over this assay is coupled to APE1.

[4] = biological target: Methyl-CpG-binding domain protein 4 (Homo sapiens) (UniProt O95243);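 further: MBD4 activity read as fluorescence at 594 nm from cleavage and release of a quenched duplex DNA oligonucleotide, with APE1 coupled to incise the strand and raise turnover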
Methyl-CpG-binding domain protein 4 (Homo sapiens), sequence (O95243 whole entry, the tested form may be a part): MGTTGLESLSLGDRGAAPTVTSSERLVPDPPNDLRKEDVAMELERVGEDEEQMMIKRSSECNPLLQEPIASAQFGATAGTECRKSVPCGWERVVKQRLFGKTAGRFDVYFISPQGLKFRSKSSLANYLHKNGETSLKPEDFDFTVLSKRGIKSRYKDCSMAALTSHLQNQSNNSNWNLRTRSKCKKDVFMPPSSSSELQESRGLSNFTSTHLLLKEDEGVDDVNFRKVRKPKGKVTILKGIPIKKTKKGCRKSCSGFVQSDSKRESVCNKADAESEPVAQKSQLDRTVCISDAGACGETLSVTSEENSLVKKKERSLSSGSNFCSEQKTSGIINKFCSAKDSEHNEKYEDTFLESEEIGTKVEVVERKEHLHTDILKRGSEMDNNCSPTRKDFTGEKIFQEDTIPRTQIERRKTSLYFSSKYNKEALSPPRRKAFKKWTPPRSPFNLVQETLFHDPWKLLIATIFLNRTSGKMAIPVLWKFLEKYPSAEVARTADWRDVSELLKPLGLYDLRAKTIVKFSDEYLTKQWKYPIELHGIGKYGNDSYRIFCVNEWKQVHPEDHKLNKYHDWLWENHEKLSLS
Description: Inhibition of MBD4 by quantifying inhibition of MBD4-mediated cleavage and dissociation of quenched duplex DNA oligonucleotides, measured as fluorescence at 594 nm. To generate a functional strand incision and increase turn-over this assay is coupled to APE1.

[5] = biological target: Uracil-DNA glycosylase (Homo sapiens) (UniProt P13051);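 further: UNG excision on a quenched double-stranded DNA oligo probe, with APE1 added for strand incision and turnover, read as fluorescence at 594 nm as strands separate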
Uracil-DNA glycosylase (Homo sapiens), sequence (P13051 whole entry): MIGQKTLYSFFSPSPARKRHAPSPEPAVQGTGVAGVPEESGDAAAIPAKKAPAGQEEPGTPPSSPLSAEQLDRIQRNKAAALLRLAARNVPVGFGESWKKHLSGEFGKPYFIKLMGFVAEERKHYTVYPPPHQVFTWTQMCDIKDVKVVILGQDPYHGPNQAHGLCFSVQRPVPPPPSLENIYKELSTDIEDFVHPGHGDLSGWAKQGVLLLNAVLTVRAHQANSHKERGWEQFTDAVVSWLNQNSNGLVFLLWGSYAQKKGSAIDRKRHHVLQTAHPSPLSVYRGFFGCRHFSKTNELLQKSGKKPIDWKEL
Description: Inhibition of UNG by quantifying inhibition of UNG-mediated cleavage and dissociation of quenched duplex DNA oligonucleotides, measured as fluorescence at 594 nm. To generate a functional strand incision and increase turn-over this assay is coupled to APE1.

[6] = biological target: G/T mismatch-specific thymine DNA glycosylase (Homo sapiens) (UniProt Q13569);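 further: human TDG cleavage of quenched duplex DNA oligonucleotides coupled to APE1, strand release read as fluorescence at 594 nm, inhibition of TDG activity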
G/T mismatch-specific thymine DNA glycosylase (Homo sapiens), sequence (Q13569 whole entry): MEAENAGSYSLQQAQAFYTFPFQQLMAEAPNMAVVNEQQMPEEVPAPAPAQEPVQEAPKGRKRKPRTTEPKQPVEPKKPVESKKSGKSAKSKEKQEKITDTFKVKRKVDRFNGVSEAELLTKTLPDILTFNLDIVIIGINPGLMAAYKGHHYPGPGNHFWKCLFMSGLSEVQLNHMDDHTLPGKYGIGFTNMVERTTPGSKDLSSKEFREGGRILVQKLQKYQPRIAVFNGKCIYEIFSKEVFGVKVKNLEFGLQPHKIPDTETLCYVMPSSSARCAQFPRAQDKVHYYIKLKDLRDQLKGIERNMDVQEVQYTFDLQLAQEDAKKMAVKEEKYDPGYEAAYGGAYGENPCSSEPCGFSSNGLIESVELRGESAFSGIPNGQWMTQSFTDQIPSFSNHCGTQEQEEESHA
Description: Inhibition of TDG by quantifying inhibition of TDG-mediated cleavage and dissociation of quenched duplex DNA oligonucleotides, measured as fluorescence at 594 nm. To generate a functional strand incision and increase turn-over this assay is coupled to APE1.

[7] = biological target: Endonuclease 8-like 1 (Homo sapiens) (UniProt Q96FI4);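 further: fluorescence at 594 nm from quenched duplex DNA oligonucleotides released by NEIL1 cleavage and strand separation, reported as reduction of this enzyme activity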
Endonuclease 8-like 1 (Homo sapiens), sequence (Q96FI4 whole entry): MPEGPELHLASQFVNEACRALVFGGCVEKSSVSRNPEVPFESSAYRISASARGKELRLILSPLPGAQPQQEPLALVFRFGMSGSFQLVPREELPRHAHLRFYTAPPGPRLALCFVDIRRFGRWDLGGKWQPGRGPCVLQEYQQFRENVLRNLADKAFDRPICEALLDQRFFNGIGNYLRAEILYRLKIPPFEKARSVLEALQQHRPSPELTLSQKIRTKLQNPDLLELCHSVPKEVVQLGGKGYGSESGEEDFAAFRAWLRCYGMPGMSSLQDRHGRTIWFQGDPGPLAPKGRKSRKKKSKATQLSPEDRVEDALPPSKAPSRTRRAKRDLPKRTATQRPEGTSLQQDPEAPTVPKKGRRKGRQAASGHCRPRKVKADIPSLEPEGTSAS
Description: Inhibition of NEIL1 by quantifying inhibition of NEIL1-mediated cleavage and dissociation of quenched duplex DNA oligonucleotides, measured as fluorescence at 594 nm.

[8] = biological target: T3, Endonuclease 8-like 2 (Homo sapiens) (UniProt Q969S2);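 further: fluorescence at 594 nm reports NEIL2 cutting and release of a quenched double-stranded DNA oligo substrate, reduced signal read as inhibition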
T3 sequence (whole entry): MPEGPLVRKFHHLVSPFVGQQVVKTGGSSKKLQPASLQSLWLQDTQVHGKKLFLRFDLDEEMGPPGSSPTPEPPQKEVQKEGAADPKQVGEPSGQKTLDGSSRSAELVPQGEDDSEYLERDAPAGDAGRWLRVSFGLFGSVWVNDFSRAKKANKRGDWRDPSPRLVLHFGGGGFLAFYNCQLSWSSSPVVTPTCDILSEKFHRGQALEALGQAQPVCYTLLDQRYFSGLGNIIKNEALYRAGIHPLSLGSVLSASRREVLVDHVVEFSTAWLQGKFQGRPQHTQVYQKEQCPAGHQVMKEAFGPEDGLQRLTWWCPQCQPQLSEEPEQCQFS
Description: Inhibition of NEIL2 by quantifying inhibition of NEIL2-mediated cleavage and dissociation of quenched duplex DNA oligonucleotides, measured as fluorescence at 594 nm.

[9] = biological target: T4, Single-strand selective monofunctional uracil DNA glycosylase (Homo sapiens) (UniProt Q53HV7);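 further: enzymatic SMUG1 assay coupled with APE1, reading fluorescence at 594 nm released when a quenched double-stranded DNA oligonucleotide substrate is cleaved and separated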
T4 sequence (whole entry): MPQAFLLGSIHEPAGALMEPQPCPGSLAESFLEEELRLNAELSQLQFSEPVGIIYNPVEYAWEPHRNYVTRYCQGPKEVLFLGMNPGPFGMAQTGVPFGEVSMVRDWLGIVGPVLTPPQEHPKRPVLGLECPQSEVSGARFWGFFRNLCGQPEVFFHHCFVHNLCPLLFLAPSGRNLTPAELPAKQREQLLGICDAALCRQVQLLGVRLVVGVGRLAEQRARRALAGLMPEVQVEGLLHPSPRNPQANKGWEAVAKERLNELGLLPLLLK
Description: Inhibition of SMUG1 by quantifying inhibition of SMUG1-mediated cleavage and dissociation of quenched duplex DNA oligonucleotides, measured as fluorescence at 594 nm. To generate a functional strand incision and increase turn-over this assay is coupled to APE1.

Row | inhibition ([1]; Compound Concentration 10.0 uM) [%] | inhibition ([2]; Compound Concentration 10.0 uM) [%] | inhibition ([3]; Compound Concentration 10.0 uM) [%] | inhibition ([4]; Compound Concentration 10.0 uM) [%] | inhibition ([5]; Compound Concentration 10.0 uM) [%] | inhibition ([6]; Compound Concentration 10.0 uM) [%] | inhibition ([7]; Compound Concentration 10.0 uM) [%] | inhibition ([8]; Compound Concentration 10.0 uM) [%] | inhibition ([9]; Compound Concentration 10.0 uM) [%] | inhibition ([1]; Compound Concentration 1.0 uM) [%] | inhibition ([2]; Compound Concentration 1.0 uM) [%] | inhibition ([3]; Compound Concentration 1.0 uM) [%] | inhibition ([4]; Compound Concentration 1.0 uM) [%] | inhibition ([5]; Compound Concentration 1.0 uM) [%] | inhibition ([6]; Compound Concentration 1.0 uM) [%] | inhibition ([7]; Compound Concentration 1.0 uM) [%] | inhibition ([8]; Compound Concentration 1.0 uM) [%] | inhibition ([9]; Compound Concentration 1.0 uM) [%] | SMILES
1 | -4.04 | -7.2 | 44.6 | 63.4 | 4.65 | 46 | -6.35 | -4.32 | 23.9 | – | – | – | – | – | – | – | – | – | CCCCN(CCCC)C(=O)CN1C[C@@H](c2cc(OC)c3c(c2)OCO3)[C@H](C(=O)O)[C@H]1CC(C)(C)CCC
2 | 30.1 | 1.48 | 13.2 | -2.05 | 3.81 | 45.9 | 7.67 | 1.31 | 25.7 | – | – | – | – | – | – | – | – | – | O=C(O)c1ccc(-c2coc3ncc(-c4ccccc4)cc23)cc1Cl
3 | 0.715 | 7.26 | -5.77 | 59.6 | 2.38 | 97.3 | -6.95 | -0.234 | 18.8 | – | – | – | – | – | – | – | – | – | Cc1cc(-n2nc(Cc3cc(F)cc(C(F)(F)F)c3)nc2C)ccc1C(N)=O
4 | 9.89 | -3.26 | 2.54 | 96.5 | 6.88 | 48.4 | 1.53 | -5.08 | 18.4 | – | – | – | – | – | – | – | – | – | CC(=O)Nc1ncc(CN2CCC[C@H](Cc3cc(C)nc(C)c3)C2)s1
5 | – | – | – | – | – | – | – | – | – | -1.15 | 2.18 | 3.08 | 4.16 | 3.77 | 29.2 | 2.52 | 0.505 | 19.5 | Nc1ncc2c(n1)-c1c([nH]c3ccc(C4CC4)cc13)CCCC2
6 | 2.33 | -9.94 | -1.31 | 23.6 | 0.621 | 39.8 | 6.13 | -1.57 | 9.25 | – | – | – | – | – | – | – | – | – | CN(C(=O)c1cnn2cccnc12)c1cc2c(cc1N1CCOCC1)C(=O)N(C[C@@H](F)C(C)(C)O)C2
7 | -6.77 | 7.92 | -6.61 | 53.6 | 1.18 | 40.4 | 3.04 | 5.89 | 6.53 | – | – | – | – | – | – | – | – | – | N#CN1CC[C@H](C(=O)Nc2nc3c(s2)CN(C(=O)CN=[N+]=[N-])CC3)C1
8 | 6.45 | 5.29 | 12.6 | 61.8 | 5.95 | 69.8 | 2.28 | -0.489 | 12.7 | – | – | – | – | – | – | – | – | – | CC(=O)Nc1c(F)cc(C(=O)N[C@H]2CC[C@H](O)CC2)cc1O[C@@H](C)c1ccccc1
9 | – | – | – | – | – | – | – | – | – | 5.04 | -6.19 | -1.89 | 30 | 0.741 | 40.2 | -4.09 | -1.92 | 16.6 | CN(C)C(=O)Cn1cc(-c2ccc(-c3cncc4ccccc34)cc2)cn1
10 | 4.92 | -1.95 | 18.3 | 66.8 | 5.72 | 46.7 | -3.02 | 3.08 | 27.6 | – | – | – | – | – | – | – | – | – | CC(C)OC(=O)C1=CN(C(=O)c2ccc(F)c(F)c2)CC(C)(C)c2c1[nH]c1ccccc21
11 | – | – | – | – | – | – | – | – | – | -4.69 | 4.63 | 5.54 | 63.1 | 3.9 | 45.5 | -3.77 | 7.16 | 17.8 | COc1cccc(-c2nccc3c2CN(c2ccccc2)C3=O)c1
12 | 7.93 | -9.18 | 27.9 | 65.3 | 2.58 | 98.8 | -1.35 | -5.59 | 17.4 | – | – | – | – | – | – | – | – | – | CCC[C@@H]1CNCc2c1[nH]c(=O)c(C#N)c2N1CCC2(CC1)CC2
13 | 32.7 | 9.89 | 0.918 | 60.8 | 6.5 | 60.5 | 1.07 | -4.06 | 18.7 | 33.1 | 4.27 | -1.57 | -4.56 | 0.265 | 36.3 | – | – | 14.8 | CN1CCN(C(=O)C(C)(C)c2ccc(C(=O)Nc3cn4cc(-c5ccncc5)ccc4n3)cc2)CC1
14 | 15.2 | 16.6 | -5.88 | -2.06 | -7.93 | 11.8 | -3.02 | 11.8 | 2.15 | – | – | – | – | – | – | – | – | – | C[C@H](NC(=O)c1c(C(F)F)nn(C)c1Oc1cccc(C(F)(F)F)c1)c1ccc(C(=O)O)cc1
15 | -1.18 | 0.755 | 0.815 | 25.9 | 2.48 | 45.3 | -5.19 | 3.79 | 15.8 | – | – | – | – | – | – | – | – | – | CC(C)(O)[C@H](F)CN1Cc2cc(NC(=O)c3cnn4cccnc34)c(N3CCOCC3)cc2C1=O
16 | 7.76 | 22.9 | -2.45 | 11.1 | -9.18 | 8.79 | 5.2 | 13.9 | -6.46 | – | – | – | – | – | – | – | – | – | O=C(O)c1ccc(C(=O)N[C@@H](c2ccc(OC(F)(F)F)c(F)c2)c2ncccc2F)nc1
17 | 9.15 | -0.379 | 7.7 | 30.1 | 7.52 | 61.5 | -5.75 | -4.68 | 17.5 | – | – | – | – | – | – | – | – | – | Cc1nc(C2CCN(C(=O)c3ccc(OC(F)(F)F)cc3N)CC2)c2ncc(N3CCN(C)CC3)cc2n1
18 | – | – | – | – | – | – | – | – | – | 15.3 | 6.36 | 10.6 | -7.49 | 3.95 | 59 | -7.39 | -7.57 | 24.3 | CCC(=O)N1CCN(c2ccc(-n3c(=O)ccc4cnc5ccc(-c6cnc7ccccc7c6)cc5c43)cc2C(F)(F)F)CC1
19 | 4.25 | 13.8 | -7.14 | -8.27 | -1.45 | -2.2 | 7.86 | -3.66 | 17.8 | – | – | – | – | – | – | – | – | – | CC(C)C[C@H](NC(=O)c1cc2ccccc2s1)C(=O)N1CCN(C(=O)[C@H](CO)NS(=O)(=O)c2ccc(Cl)cc2Cl)CC1

Row | SMILES | inhibition ([1]; Compound Concentration 10.0 uM) [%] | inhibition ([2]; Compound Concentration 10.0 uM) [%] | inhibition ([3]; Compound Concentration 10.0 uM) [%] | inhibition ([4]; Compound Concentration 10.0 uM) [%] | inhibition ([5]; Compound Concentration 10.0 uM) [%] | inhibition ([6]; Compound Concentration 10.0 uM) [%] | inhibition ([7]; Compound Concentration 10.0 uM) [%] | inhibition ([8]; Compound Concentration 10.0 uM) [%] | inhibition ([9]; Compound Concentration 10.0 uM) [%] | inhibition ([1]; Compound Concentration 1.0 uM) [%] | inhibition ([2]; Compound Concentration 1.0 uM) [%] | inhibition ([3]; Compound Concentration 1.0 uM) [%] | inhibition ([4]; Compound Concentration 1.0 uM) [%] | inhibition ([5]; Compound Concentration 1.0 uM) [%] | inhibition ([6]; Compound Concentration 1.0 uM) [%] | inhibition ([7]; Compound Concentration 1.0 uM) [%] | inhibition ([8]; Compound Concentration 1.0 uM) [%] | inhibition ([9]; Compound Concentration 1.0 uM) [%]
20 | CCOP(=O)(OCC)C(=Cc1cc(C(C)(C)C)c(O)c(C(C)(C)C)c1)P(=O)(OCC)OCC | 14.5 | 12.5 | -1.84 | 49.5 | -4.58 | 58.6 | -3.17 | 11.2 | 3.52 | – | – | – | – | – | – | – | – | –
21 | Oc1ccc2c3c1O[C@H]1c4[nH]c5c(c4C[C@@]4(O)[C@@H](C2)N(CC2CC2)CC[C@]314)C[C@@]1(O)[C@H]2Cc3ccc(O)c4c3[C@@]1(CCN2CC1CC1)[C@H]5O4 | -2.67 | 5.59 | 7.55 | -5.37 | 1.76 | 10.6 | -5.39 | -3.73 | -7.06 | – | – | – | – | – | – | – | – | –
